Series [1] can be described thus: Therapeutic index for anti-HIV activity against HIV-IIIB in CEM-SS cells. The series is classed as cell-based.
A short description of series [2]: Therapeutic index for anti-HCMV activity against AD-169 strain in MRC-5 cells. The series is classed as cell-based. The conditions noted are these: human, mrc5.
Series [3] has as its system MRC5. Nature of the series: Cytotoxic dose for anti-HCMV activity against AD-169 strain in MRC-5 cells. It counts as functional. The conditions noted are these: Homo sapiens, read-out: CD50 (the source's name).
Series [4] concerns MRC5. Kind of series: Inhibitory concentration for anti-HCMV activity against AD-169 strain in MRC-5 cells. The series is classed as functional, cell-based. The conditions noted are these: Homo sapiens.

`CCN(CC)C(=S)[S][Na]` [DITIOCARB SODIUM] had a TI in series [1] of over 67.

For the molecule `Nc1nc(O)c2ncn(COC(CO)CO)c2n1` [GANCICLOVIR], the TI in series [2] is over 20. The CC50 in the series on MRC5 [3] was over 125 µM. Moreover, it took 6.3 µM to reach half-maximal inhibition with MRC5 [4] (IC50).

The record behind these values is ChEMBL document CHEMBL1131418, “Antiviral oligo- and polyribonucleotides containing selected triazolo[2,3-a]purines” (J Med Chem, 1998).
